Results from patent US11707464B2, “Methods of treating heavy menstrual bleeding” (AbbVie Inc., priority 2013, dated 2023).

Key:
women with endometriosis = test: Phase 2 endometriosis studies: bone mineral density (BMD) over 24 weeks; format: in vivo, human
Procedure: Changes in BMD at the lumbar spine and the femur were evaluated over 24 weeks in three Phase 2 endometriosis studies. […] While a larger effect on BMD is anticipated with a 200 or 300 mg BID regimen compared to that observed with 250 mg QD dosed for 6 months in previous studies, the magnitude of this effect is unknown.

[1] = test system: premenopausal women with uterine fibroids and heavy menstrual bleeding; test: Phase 2a uterine fibroid trial: fibroid volume and uterine volume; format: in vivo, human; conditions: for percent of subjects who achieved a ≥25% reduction in uterine volume: placebo 9%; for percent of subjects who achieved a ≥25% reduction in fibroid volume: placebo 29%
Excerpt: In another embodiment, the present invention relates to methods for reducing the fibroid volume in a subject with uterine fibroids. In one aspect, the methods of the present invention can be used to reduce the fibroid volume by greater than or equal to at least about 25%. In another aspect, the methods of the present invention can be used to reduce the fibroid volume in a subject with uterine fibroids. More specifically, the methods of the present invention can be used to reduce the fibroid volume in a subject with uterine fibroids by volume by greater than or equal to at least about 25%. In another aspect, the methods of the present invention are used to reduce the fibroid volume in a subject with uterine fibroids prior to hysterectomy, myomectomy, or uterine artery embolization. Methods for measuring fibroid volume are known in the art and include ultrasound and/or MRI.
In another embodiment, the present invention relates to methods for reducing the total uterine volume in a subject with uterine fibroids. The “total uterine volume” is the volume of the entire uterus. In one aspect, the methods of the present invention can be used to reduce the total uterine volume by greater than or equal to at least about 25%. In another aspect, the methods of the present invention can be used to reduce the total uterine volume in a subject with uterine fibroids. More specifically, the methods of the present invention can be used to reduce the total uterine volume in a subject with uterine fibroids by greater than or equal to at least about 25%. Methods for measuring total uterine volume are known in the art and include, ultrasound and/or MRI.
This example is a Phase 2a, multicenter, double-blind, placebo-controlled, randomized trial (N=280) with a 3-month treatment duration evaluating the safety and efficacy of Elagolix administered with or without Activella® in premenopausal women with uterine fibroids.
It evaluates the safety and efficacy of […] of Elagolix (100 mg BID, 200 mg BID, 200 mg BID plus low dose Activella® (a combination of 0.5 mg estradiol and 0.1 mg northindrone acetate), 300 mg BID, 300 mg BID plus 1.0 mg of Estrace and 200 mg cyclical Prometrium (collectively referred to as “EP”), 400 mg QD and 600 QD) versus placebo (PBO) to reduce uterine bleeding associated with uterine fibroids and to reduce fibroid volume and uterine volume in premenopausal women 20 to 49 years of age with heavy menstrual bleeding (HMB; >80 mL blood loss per menstrual cycle). The study involved the following six (6) cohorts:
There are a number of efficacy endpoints, but a composite endpoint consisting of two bleeding assessments was used to assess one measure of efficacy. It included the percent of subjects who achieved a menstrual blood loss (MBL) volume of <80 mL at the Final Month (last 28 days of treatment), and also achieved a ≥50% reduction in MBL volume from baseline to the Final Month (last 28 days of treatment) as measured by the Alkaline Hematin (AH) method. Eighty-five percent (85%), 97%, and 30% of subjects achieved the composite bleeding assessment endpoint in the 200 mg BID, 300 mg BID, and placebo groups, respectively (P<0.05 for 200 mg BID versus placebo in cohort 1, and 300 mg BID versus placebo in cohort 2). […]

COc1cccc(-c2c(C)n(Cc3c(F)cccc3C(F)(F)F)c(=O)n(C[C@H](NCCCC(=O)O)c3ccccc3)c2=O)c1F [Elagolix, 4-((R)-2-[5-(2-fluoro-3-methoxy-phenyl)-3-(2-fluoro-6-trifluoromethyl-benzyl)-4-methyl-2,6-dioxo-3,6-dihydro-2H-pyrimidin-1-yl]-1-phenyl-ethylamino)-butyric acid]
subjects with decreases in BMD of the spine that exceeded 5% (women with endometriosis; 75 mg BID, 5/62 subjects, 24 weeks, largest study): 8.1%
largest decrease in BMD of the spine (women with endometriosis; 150 mg QD and 75 mg BID, 24 weeks, largest study): no subject exceeded −8%
subjects with decreases in BMD of the spine that exceeded 5% (women with endometriosis; 150 mg QD, 2/55 subjects, 24 weeks, largest study): 3.6%
bone loss (women with endometriosis; doses that provide partial estrogen suppression (target dose 150 mg QD)): modest degree of bone loss
percent of subjects who achieved a ≥25% reduction in uterine volume ([1]; 200 mg BID): 50%
percent of subjects who achieved a ≥25% reduction in fibroid volume ([1]; 200 mg BID): 63%
percent of subjects who achieved a ≥25% reduction in uterine volume ([1]; 300 mg BID): 68%
percent of subjects who achieved a ≥25% reduction in fibroid volume ([1]; 300 mg BID): 55%
uterine and fibroid volumes (FIG. 4) ([1]; 300 mg BID, within 3 months): strongest effects
